How the values were obtained:
barnyardgrass = assay: Test F preemergence; format: in vivo, Echinochloa crus-galli; settings: 21 days, scale 0 to 100
Description: (§1) Seeds of plant species selected from bermudagrass (Cynodon dactylon), surinam grass (Brachiaria decumbens), large (Lg) crabgrass (Digitaria sanguinalis), crabgrass, naked (naked crabgrass, Digitaria nuda), foxtail, green (green foxtail, Setaria viridis), johnsongrass (Sorghum halepense), kochia (Kochia scoparia), morningglory (pitted morningglory, Ipomoea lacunosa), nutsedge, purple (purple nutsedge, Cyperus rotundus), ragweed (common ragweed, Ambrosia elatior), mustard, black (black mustard, Brassica nigra), guineagrass (Panicum maximum), dallisgrass (Paspalum dilatatum), barnyardgrass (Echinochloa crus-galli), sandbur (southern sandbur, Cenchrus echinatus), sowthistle (common sowthistle, Sonchus oleraceous), Italian ryegrass (Lolium multiflorum), signalgrass (broadleaf signalgrass, Brachiaria platyphylla), dayflower (Virginia (VA) dayflower, Commelina virginica), bluegrass (annual bluegrass, Poa annua), quackgrass (Elytrigia repens), mallow (common mallow, Malva sylvestris), buckwheat, wild (wild buckwheat, Polygonum convolvulus), leafy spurge (Euphorbia esula), chickweed (common chickweed, Stellaria media), wild poinsettia (Euphorbia heterophylla), and pigweed (Amaranthus retroflexus) were planted into a blend of loam soil and sand and treated preemergence with test chemicals formulated in a non-phytotoxic solvent mixture which included a surfactant.
(§2) Treated plants and controls were maintained in a greenhouse for 21 days, after which time all species were compared to controls and visually evaluated. Plant response ratings, summarized in Table F, are based on a scale of 0 to 100 where 0 is no effect and 100 is complete control. A dash (-) response means no test result.

kochia = assay: Test F preemergence; format: in vivo, Kochia scoparia; settings: 21 days, scale 0 to 100
Description: as §1, §2

foxtail, green = assay: Test F preemergence; format: in vivo, Setaria viridis; settings: 21 days, scale 0 to 100
Description: as §1, §2

oilseed rape = assay: Test D preemergence; format: in vivo, Brassica napus; settings: for plant injury at 16 g/ha / plant injury at 31 g/ha / plant injury at 62 g/ha / plant injury at 125 g/ha: Brassica napus, pre-emergence; for plant injury at 16 g/ha: read-out: Plant response rating, Oilseed Rape; for plant injury at 31 g/ha / plant injury at 62 g/ha / plant injury at 125 g/ha: scale 0-100, read-out: Plant response rating, Oilseed Rape
Description: (§3) Seeds of plant species selected from bluegrass (annual bluegrass, Poa annua), blackgrass (Alopecurus myosuroides), canarygrass (littleseed canarygrass, Phalaris minor), chickweed (common chickweed, Stellaria media), galium (catchweed bedstraw, Galium aparine), bromegrass, downy (downy bromegrass, Bromus tectorum), field poppy (Papaver rhoeas), field violet (Viola arvensis), green foxtail (Setaria viridis), deadnettle (henbit deadnettle, Lamium amplexicaule), Italian ryegrass (Lolium multiflorum), kochia (Kochia scoparia), lambsquarters (Chenopodium album), oilseed rape (Brassica napus), pigweed (Amaranthus retroflexus), chamomile (scentless chamomile, Matricaria inodora), Russian thistle (Salsola kali), speedwell (bird's-eye speedwell, Veronica persica), spring barley (Hordeum vulgare), spring wheat (Triticum aestivum), wild buckwheat (Polygonum convolvulus), wild mustard (Sinapis arvensis), wild oat (Avena fatua), wild radish (Raphanus raphanistrum), windgrass (Apera spica-venti), winter barley (Hordeum vulgare), and winter wheat (Triticum aestivum) were planted into a silt loam soil and treated preemergence with test chemicals formulated in a non-phytotoxic solvent mixture which included a surfactant.
(§4) At the same time, these species were planted in pots containing Redi-Earth® planting medium (Scotts Company, 14111 Scottslawn Road, Marysville, Ohio 43041) comprising spaghnum peat moss, vermiculite, wetting agent and starter nutrients and treated with postemergence applications of the test chemicals formulated in the same manner. Plants ranged in height from 2 to 18 cm (1- to 4-leaf stage). Treated plants and controls were maintained in a controlled growth environment for 7 to 21 days after which time all species were compared to controls and visually evaluated. Plant response ratings, summarized in Table D, are based on a scale of 0 to 100 where 0 is no effect and 100 is complete control. A dash (-) response means no test result.

wild radish = assay: Test D preemergence; format: in vivo, Raphanus raphanistrum; settings: for pest or weed control at 16 g/ha / pest or weed control at 31 g/ha: read-out: Plant response rating, Radish, Wild
Description: as §3, §4

bromegrass, downy = assay: Test D preemergence; format: in vivo, Bromus tectorum; settings: for pest or weed control at 16 g/ha / pest or weed control at 31 g/ha / pest or weed control at 62 g/ha / pest or weed control at 125 g/ha: Bromus tectorum, pre-emergence; for pest or weed control at 16 g/ha: read-out: Plant response rating, Bromegrass, Downy; for pest or weed control at 31 g/ha / pest or weed control at 62 g/ha / pest or weed control at 125 g/ha: scale 0-100, read-out: Plant response rating, Bromegrass, Downy
Description: as §3, §4

wild oat = assay: Test D postemergence; format: in vivo, Avena fatua; settings: for pest or weed control at 16 g/ha / pest or weed control at 31 g/ha / pest or weed control at 62 g/ha / pest or weed control at 125 g/ha: Avena fatua, post-emergence; for pest or weed control at 16 g/ha: scale 0-100, read-out: Plant response rating, Oat, Wild; for pest or weed control at 31 g/ha / pest or weed control at 62 g/ha / pest or weed control at 125 g/ha: read-out: Plant response rating, Oat, Wild
Description: as §3, §4

[1] = 16 g ai/ha, scale 0 (no effect) to 100 (complete control)
[2] = Raphanus raphanistrum, pre-emergence, 16 g ai/ha, scale 0 (no effect) to 100 (complete control)
[3] = Raphanus raphanistrum, pre-emergence, 31 g ai/ha, scale 0 (no effect) to 100 (complete control)
[4] = Raphanus raphanistrum, pre-emergence, 125 g ai/ha, scale 0-100, read-out: Plant response rating, Radish, Wild
[5] = 31 g ai/ha, scale 0 to 100 (0 no effect, 100 complete control)
[6] = 62 g ai/ha, scale 0 to 100 (0 no effect, 100 complete control)
[7] = 125 g ai/ha, scale 0 to 100 (0 no effect, 100 complete control)

Row | Structure (SMILES) | Plant response rating, Barnyardgrass (barnyardgrass; 16 g ai/ha) | Plant response rating, Barnyardgrass (barnyardgrass; 31 g ai/ha) | Plant response rating, Barnyardgrass (barnyardgrass; 62 g ai/ha) | Plant response rating, Barnyardgrass (barnyardgrass; 125 g ai/ha) | Plant response rating, Barnyardgrass (barnyardgrass; 250 g ai/ha) | Plant response rating, Kochia (kochia; 16 g ai/ha) | Plant response rating, Kochia (kochia; 31 g ai/ha) | Plant response rating, Kochia (kochia; 62 g ai/ha) | Plant response rating, Kochia (kochia; 125 g ai/ha) | Plant response rating, Kochia (kochia; 250 g ai/ha) | Plant response rating, Foxtail, Green (foxtail, green; 16 g ai/ha) | Plant response rating, Foxtail, Green (foxtail, green; 31 g ai/ha) | Plant response rating, Foxtail, Green (foxtail, green; 62 g ai/ha) | Plant response rating, Foxtail, Green (foxtail, green; 125 g ai/ha) | Plant response rating, Foxtail, Green (foxtail, green; 250 g ai/ha) | plant injury at 16 g/ha (oilseed rape; [1]) [%] | plant injury at 31 g/ha (oilseed rape; 31 g ai/ha) [%] | plant injury at 62 g/ha (oilseed rape; 62 g ai/ha) [%] | plant injury at 125 g/ha (oilseed rape; 125 g ai/ha) [%] | pest or weed control at 16 g/ha (wild radish; [2]) [%] | other results
1 | N#Cc1cccc(Oc2ncc(F)cn2)c1-n1cc(C(F)(F)F)cn1 [Compound 79, 3-[(5-fluoro-2-pyrimidinyl)oxy]-2-[4-(trifluoromethyl)-1H-pyrazol-1-yl]benzonitrile] | 75 | 100 | 100 | 100 | 100 | 100 | 100 | 100 | 100 | 100 | 95 | 100 | 100 | 100 | 100 | – | – | – | – | – | –
2 | N#Cc1cccc(Oc2ncc(Cl)cn2)c1-n1cc(OC(F)F)cn1 [Compound 97] | 0 | 90 | 95 | 100 | 100 | 100 | 100 | 100 | 100 | 100 | 75 | 100 | 100 | 100 | 100 | – | – | – | – | – | –
3 | Fc1cccc(Oc2ncc(Cl)cn2)c1-n1cc(C(F)F)nn1 [Compound 141, 5-chloro-2-[2-[4-(difluoromethyl)-1H-1,2,3-triazol-1-yl]-3-fluorophenoxy]pyrimidine] | – | – | – | – | – | – | – | – | – | – | – | – | – | – | – | 100 | 100 | 100 | 100 | 40 | pest or weed control at 31 g/ha (wild radish; [3]): 98%; pest or weed control at 62 g/ha (wild radish; Raphanus raphanistrum, pre-emergence, 62 g ai/ha, scale 0-100, read-out: Plant response rating, Radish, Wild): 100%; pest or weed control at 125 g/ha (wild radish; [4]): 100%; pest or weed control at 16 g/ha (bromegrass, downy; [1]): 30%; pest or weed control at 31 g/ha (bromegrass, downy; 31 g ai/ha): 45%; pest or weed control at 62 g/ha (bromegrass, downy; 62 g ai/ha): 85%; pest or weed control at 125 g/ha (bromegrass, downy; 125 g ai/ha): 95%; pest or weed control at 16 g/ha (wild oat; 16 g ai/ha): 5%; pest or weed control at 31 g/ha (wild oat; [5]): 10%; pest or weed control at 62 g/ha (wild oat; [6]): 15%; pest or weed control at 125 g/ha (wild oat; [7]): 30%
4 | FCc1cccc(Oc2ncc(Cl)cn2)c1-n1cc(I)cn1 [Compound 245] | – | – | – | – | – | – | – | – | – | – | – | – | – | – | – | – | – | – | – | – | Plant response rating, Oilseed Rape (oilseed rape; [1]): 0; Plant response rating, Oilseed Rape (oilseed rape; 31 g ai/ha, scale 0-100): 0; Plant response rating, Oilseed Rape (oilseed rape; 62 g ai/ha, scale 0-100): 30; Plant response rating, Oilseed Rape (oilseed rape; 125 g ai/ha, scale 0-100): 100; Plant response rating, Radish, Wild (wild radish; [1]): 0; Plant response rating, Radish, Wild (wild radish; 31 g ai/ha, scale 0 (no effect) to 100 (complete control)): 0; Plant response rating, Radish, Wild (wild radish; 125 g ai/ha, scale 0-100): 85; Plant response rating, Bromegrass, Downy (bromegrass, downy; [1]): 0; Plant response rating, Bromegrass, Downy (bromegrass, downy; 31 g ai/ha, scale 0-100): 0; Plant response rating, Bromegrass, Downy (bromegrass, downy; 62 g ai/ha, scale 0-100): 35; Plant response rating, Bromegrass, Downy (bromegrass, downy; 125 g ai/ha, scale 0-100): 40; Plant response rating, Oat, Wild (wild oat; 16 g ai/ha, scale 0-100): 0; Plant response rating, Oat, Wild (wild oat; [5]): 0; Plant response rating, Oat, Wild (wild oat; [6]): 10; Plant response rating, Oat, Wild (wild oat; [7]): 10
5 | N#Cc1cccc(Oc2ncc(Cl)cn2)c1-n1cc(OCC(F)(F)F)cn1 [Compound 274, 3-[(5-chloro-2-pyrimidinyl)oxy]-2-[4-(2,2,2-trifluoroethoxy)-1H-pyrazol-1-yl]benzonitrile] | 75 | 100 | 100 | 100 | 100 | 100 | 100 | 100 | 100 | 100 | 100 | 100 | 100 | 100 | 100 | 35 | 30 | 65 | 75 | 5 | pest or weed control at 31 g/ha (wild radish; [3]): 5%; pest or weed control at 125 g/ha (wild radish; [4]): 85%; pest or weed control at 16 g/ha (bromegrass, downy; [1]): 0%; pest or weed control at 31 g/ha (bromegrass, downy; 31 g ai/ha): 5%; pest or weed control at 62 g/ha (bromegrass, downy; 62 g ai/ha): 5%; pest or weed control at 125 g/ha (bromegrass, downy; 125 g ai/ha): 35%; pest or weed control at 16 g/ha (wild oat; 16 g ai/ha): 20%; pest or weed control at 31 g/ha (wild oat; [5]): 30%; pest or weed control at 62 g/ha (wild oat; [6]): 35%; pest or weed control at 125 g/ha (wild oat; [7]): 40%
